Measurements: the kinase profiling compilation of Christmann-Franck et al. (2016)
Several values for one entry are separate records, joined by “and”; a condition that tells them apart may be missing. Identical values can stand only once. One block for each compound: values may come before it.

What was measured:
Assay in all cases: Caliper, Mobility shift assay off-chip
PTK2B (human) = PTK2B (human) (UniProt Q14289)
TNIK (human) = TNIK (human) (UniProt Q9UKE5)
CSNK1A1 (human) = CSNK1A1 (human) (UniProt P48729)
TSSK3 (human) = TSSK3 (human) (UniProt Q96PN8)
PRKD2 (human) = PRKD2 (human) (UniProt Q9BZL6)
LTK (human) = LTK (human) (UniProt P29376)
FGFR3 (human) = FGFR3 (human) (UniProt P22607)
MAPK9 (human) = MAPK9 (human) (UniProt P45984)
CAMK1 (human) = CAMK1 (human) (UniProt Q14012)
PLK1 (human) = PLK1 (human) (UniProt P53350)
CAMK4 (human) = CAMK4 (human) (UniProt Q16566)
CSNK1G2 (human) = CSNK1G2 (human) (UniProt P78368)
EPHA5 (human) = EPHA5 (human) (UniProt P54756)
SGK1 (human) = SGK1 (human) (UniProt O00141)
CDK9 (human) = CDK9 (human) (UniProt P50750)
SRMS (human) = SRMS (human) (UniProt Q9H3Y6)
HIPK1 (human) = HIPK1 (human) (UniProt Q86Z02)
CSNK1D (human) = CSNK1D (human) (UniProt P48730)
CDK1 (human) = CDK1 (human) (UniProt P06493)
PRKCE (human) = PRKCE (human) (UniProt Q02156)
BRSK2 (human) = BRSK2 (human) (UniProt Q8IWQ3)
PIK3CA PIK3R1 (human) = PIK3CA PIK3R1 (human) (UniProt P27986+P42336)
MARK3 (human) = MARK3 (human) (UniProt P27448)
MAPK7 (human) = MAPK7 (human) (UniProt Q13164)
HCK (human) = HCK (human) (UniProt P08631)
MAPK11 (human) = MAPK11 (human) (UniProt Q15759)
MYLK2 (human) = MYLK2 (human) (UniProt Q9H1R3)
PRKAA2 (human) = PRKAA2 (human) (UniProt P54646)
WNK2 (human) = WNK2 (human) (UniProt Q9Y3S1)
SGK3 (human) = SGK3 (human) (UniProt Q96BR1)
CSNK1G1 (human) = CSNK1G1 (human) (UniProt Q9HCP0)
PRKD3 (human) = PRKD3 (human) (UniProt O94806)
MINK1 (human) = MINK1 (human) (UniProt Q8N4C8)
PRKCD (human) = PRKCD (human) (UniProt Q05655)

Sequence of PLK1 (human) (P53350 whole entry, looked up): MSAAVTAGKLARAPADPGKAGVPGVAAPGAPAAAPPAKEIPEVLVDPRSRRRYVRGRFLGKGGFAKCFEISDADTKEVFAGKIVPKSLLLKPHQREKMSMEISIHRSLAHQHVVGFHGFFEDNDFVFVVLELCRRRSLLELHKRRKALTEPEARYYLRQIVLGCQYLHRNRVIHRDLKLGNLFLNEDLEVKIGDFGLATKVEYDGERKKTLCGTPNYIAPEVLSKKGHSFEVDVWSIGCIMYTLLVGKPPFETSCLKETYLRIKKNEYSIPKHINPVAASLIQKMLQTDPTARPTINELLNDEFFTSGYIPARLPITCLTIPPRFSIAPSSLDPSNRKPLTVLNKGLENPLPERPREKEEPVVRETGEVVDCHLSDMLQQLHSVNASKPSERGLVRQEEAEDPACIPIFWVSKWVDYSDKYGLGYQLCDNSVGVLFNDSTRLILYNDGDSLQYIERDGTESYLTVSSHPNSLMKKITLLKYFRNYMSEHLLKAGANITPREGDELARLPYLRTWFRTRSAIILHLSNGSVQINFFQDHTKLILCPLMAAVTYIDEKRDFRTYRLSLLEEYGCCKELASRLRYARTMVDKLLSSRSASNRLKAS
Sequence of MAPK11 (human) (Q15759 whole entry, looked up): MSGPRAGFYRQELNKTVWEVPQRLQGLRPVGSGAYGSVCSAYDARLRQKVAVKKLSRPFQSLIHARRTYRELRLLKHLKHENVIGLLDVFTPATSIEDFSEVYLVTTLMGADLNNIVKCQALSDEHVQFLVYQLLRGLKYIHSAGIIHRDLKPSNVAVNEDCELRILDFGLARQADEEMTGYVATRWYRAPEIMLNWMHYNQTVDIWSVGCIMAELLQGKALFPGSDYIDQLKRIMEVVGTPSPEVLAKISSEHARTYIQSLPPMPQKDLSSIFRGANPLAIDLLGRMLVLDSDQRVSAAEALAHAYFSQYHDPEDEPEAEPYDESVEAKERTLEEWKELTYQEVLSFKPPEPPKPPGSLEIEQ
Sequence of CAMK4 (human) (Q16566 whole entry, looked up): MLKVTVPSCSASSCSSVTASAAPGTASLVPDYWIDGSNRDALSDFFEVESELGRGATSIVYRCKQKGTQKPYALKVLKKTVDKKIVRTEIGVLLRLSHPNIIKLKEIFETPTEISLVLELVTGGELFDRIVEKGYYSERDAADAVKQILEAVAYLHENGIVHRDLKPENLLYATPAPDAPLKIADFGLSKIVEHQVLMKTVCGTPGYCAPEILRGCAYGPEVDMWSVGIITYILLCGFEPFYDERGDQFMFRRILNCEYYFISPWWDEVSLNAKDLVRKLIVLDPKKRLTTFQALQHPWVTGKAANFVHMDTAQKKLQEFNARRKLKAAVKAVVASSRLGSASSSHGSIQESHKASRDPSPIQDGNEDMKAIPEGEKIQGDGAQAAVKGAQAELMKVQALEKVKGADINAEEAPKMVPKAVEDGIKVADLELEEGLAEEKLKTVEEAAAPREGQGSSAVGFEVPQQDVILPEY
Sequence of PTK2B (human) (Q14289 whole entry, looked up): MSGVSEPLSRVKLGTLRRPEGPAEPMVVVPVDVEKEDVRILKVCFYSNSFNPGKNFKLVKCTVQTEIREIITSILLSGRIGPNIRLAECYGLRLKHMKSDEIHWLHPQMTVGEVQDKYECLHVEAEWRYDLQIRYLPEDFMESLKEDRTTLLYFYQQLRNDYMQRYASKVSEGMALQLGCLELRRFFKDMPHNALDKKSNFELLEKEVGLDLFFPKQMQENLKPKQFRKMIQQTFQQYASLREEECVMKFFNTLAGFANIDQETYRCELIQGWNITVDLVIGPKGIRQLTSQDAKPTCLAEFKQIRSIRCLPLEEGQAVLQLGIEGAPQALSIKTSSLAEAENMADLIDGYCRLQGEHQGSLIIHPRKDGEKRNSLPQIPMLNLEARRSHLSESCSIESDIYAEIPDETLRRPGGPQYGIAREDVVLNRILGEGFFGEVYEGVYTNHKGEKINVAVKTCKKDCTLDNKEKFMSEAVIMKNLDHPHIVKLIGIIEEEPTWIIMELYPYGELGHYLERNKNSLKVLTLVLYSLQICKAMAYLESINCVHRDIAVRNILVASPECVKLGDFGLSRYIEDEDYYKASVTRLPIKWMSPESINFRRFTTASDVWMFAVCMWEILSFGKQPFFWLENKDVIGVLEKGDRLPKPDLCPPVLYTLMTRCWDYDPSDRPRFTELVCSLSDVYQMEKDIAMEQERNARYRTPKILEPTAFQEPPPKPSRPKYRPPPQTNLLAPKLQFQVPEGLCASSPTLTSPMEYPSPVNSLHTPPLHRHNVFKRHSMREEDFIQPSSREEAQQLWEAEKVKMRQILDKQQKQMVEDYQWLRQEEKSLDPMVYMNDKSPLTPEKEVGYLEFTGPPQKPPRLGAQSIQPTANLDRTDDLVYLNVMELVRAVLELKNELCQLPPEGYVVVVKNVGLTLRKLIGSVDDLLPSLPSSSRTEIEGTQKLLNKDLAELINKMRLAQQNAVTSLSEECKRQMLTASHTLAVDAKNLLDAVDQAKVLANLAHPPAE
Sequence of EPHA5 (human) (P54756 whole entry, looked up): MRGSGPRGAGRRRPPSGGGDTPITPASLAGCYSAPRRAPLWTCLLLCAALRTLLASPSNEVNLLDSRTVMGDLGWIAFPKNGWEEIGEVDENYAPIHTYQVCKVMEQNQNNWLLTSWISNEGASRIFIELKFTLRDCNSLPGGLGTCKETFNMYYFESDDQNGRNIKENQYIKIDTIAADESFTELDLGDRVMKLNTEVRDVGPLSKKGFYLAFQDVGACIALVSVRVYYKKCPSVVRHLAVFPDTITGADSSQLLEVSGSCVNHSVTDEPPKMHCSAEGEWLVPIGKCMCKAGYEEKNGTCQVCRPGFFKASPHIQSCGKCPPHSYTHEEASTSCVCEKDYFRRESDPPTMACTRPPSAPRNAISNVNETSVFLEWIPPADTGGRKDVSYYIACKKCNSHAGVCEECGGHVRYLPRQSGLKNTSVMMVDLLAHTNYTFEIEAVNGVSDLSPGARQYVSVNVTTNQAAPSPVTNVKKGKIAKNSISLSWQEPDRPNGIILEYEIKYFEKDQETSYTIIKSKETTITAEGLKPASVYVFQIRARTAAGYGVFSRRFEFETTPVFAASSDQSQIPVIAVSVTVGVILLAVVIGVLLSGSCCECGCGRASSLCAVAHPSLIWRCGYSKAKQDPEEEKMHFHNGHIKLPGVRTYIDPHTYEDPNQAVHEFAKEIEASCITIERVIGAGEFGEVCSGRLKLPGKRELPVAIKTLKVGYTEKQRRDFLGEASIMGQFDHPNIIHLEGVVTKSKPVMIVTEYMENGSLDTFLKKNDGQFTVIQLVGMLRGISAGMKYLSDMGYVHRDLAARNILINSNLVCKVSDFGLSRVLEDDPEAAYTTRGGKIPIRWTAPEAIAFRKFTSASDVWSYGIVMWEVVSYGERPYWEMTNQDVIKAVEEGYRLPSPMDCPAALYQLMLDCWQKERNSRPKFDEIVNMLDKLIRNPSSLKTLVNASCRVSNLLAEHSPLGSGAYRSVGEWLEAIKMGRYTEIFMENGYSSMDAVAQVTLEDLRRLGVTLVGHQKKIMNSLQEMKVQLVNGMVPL
Sequence of PRKCE (human) (Q02156 whole entry, looked up): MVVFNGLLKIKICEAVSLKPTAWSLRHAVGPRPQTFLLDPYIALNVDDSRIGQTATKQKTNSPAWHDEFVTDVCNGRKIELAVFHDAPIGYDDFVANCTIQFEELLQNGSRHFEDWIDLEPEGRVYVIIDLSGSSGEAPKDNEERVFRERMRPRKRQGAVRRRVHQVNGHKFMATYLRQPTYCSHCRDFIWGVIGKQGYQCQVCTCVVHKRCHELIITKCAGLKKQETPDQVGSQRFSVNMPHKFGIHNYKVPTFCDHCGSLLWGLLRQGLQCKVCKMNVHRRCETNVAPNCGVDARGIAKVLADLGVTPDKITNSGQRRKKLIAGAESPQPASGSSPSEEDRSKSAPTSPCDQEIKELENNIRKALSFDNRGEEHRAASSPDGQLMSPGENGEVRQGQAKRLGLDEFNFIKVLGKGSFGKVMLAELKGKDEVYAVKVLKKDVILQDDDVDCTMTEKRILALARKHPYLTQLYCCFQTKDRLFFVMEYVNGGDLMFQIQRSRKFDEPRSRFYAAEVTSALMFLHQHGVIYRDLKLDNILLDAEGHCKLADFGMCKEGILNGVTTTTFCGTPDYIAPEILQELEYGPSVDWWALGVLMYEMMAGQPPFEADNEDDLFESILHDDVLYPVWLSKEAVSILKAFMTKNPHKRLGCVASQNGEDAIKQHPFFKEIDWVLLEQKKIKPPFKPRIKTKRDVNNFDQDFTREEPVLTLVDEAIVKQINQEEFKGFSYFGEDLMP
Sequence of MAPK7 (human) (Q13164 whole entry, looked up): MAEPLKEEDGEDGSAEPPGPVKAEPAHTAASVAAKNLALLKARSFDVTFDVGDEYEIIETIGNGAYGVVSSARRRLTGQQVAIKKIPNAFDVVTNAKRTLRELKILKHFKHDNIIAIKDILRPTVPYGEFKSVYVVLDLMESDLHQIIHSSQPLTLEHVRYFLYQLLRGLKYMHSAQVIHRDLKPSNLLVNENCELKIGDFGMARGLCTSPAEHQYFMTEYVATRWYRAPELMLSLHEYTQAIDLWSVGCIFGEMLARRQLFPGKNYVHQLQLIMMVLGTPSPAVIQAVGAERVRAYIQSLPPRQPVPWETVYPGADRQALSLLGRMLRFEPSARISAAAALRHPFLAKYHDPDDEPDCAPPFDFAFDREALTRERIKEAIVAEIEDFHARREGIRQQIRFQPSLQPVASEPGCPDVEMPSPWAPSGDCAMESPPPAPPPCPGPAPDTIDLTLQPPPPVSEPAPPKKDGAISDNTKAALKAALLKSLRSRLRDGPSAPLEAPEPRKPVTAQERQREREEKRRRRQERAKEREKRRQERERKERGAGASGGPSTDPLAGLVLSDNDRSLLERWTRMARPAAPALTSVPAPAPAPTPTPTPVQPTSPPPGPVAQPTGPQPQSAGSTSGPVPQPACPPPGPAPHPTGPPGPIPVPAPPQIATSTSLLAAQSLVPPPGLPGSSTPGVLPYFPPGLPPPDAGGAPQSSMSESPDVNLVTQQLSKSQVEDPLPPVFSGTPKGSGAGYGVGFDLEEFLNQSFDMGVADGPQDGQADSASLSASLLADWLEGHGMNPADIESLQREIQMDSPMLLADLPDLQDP

inhibition (PTK2B (human); compound 0.001 µM): -4.6%
inhibition (PTK2B (human); compound 0.02 µM): -1.4%
inhibition (TNIK (human); compound 0.001 µM): -6%
inhibition (TNIK (human); compound 0.02 µM): 1.4%
inhibition (CSNK1A1 (human); compound 0.001 µM): -8.2%
inhibition (CSNK1A1 (human); compound 0.02 µM): -7.8%
inhibition (TSSK3 (human); compound 0.001 µM): -1.6%
inhibition (TSSK3 (human); compound 0.02 µM): 0%
inhibition (PRKD2 (human); compound 0.001 µM): -4.8%
inhibition (PRKD2 (human); compound 0.02 µM): -2.1%
inhibition (LTK (human); compound 0.001 µM): 2.1%
inhibition (LTK (human); compound 0.02 µM): 0.9%
inhibition (FGFR3 (human); compound 0.001 µM): 8.1%
inhibition (FGFR3 (human); compound 0.02 µM): 47.4%
inhibition (MAPK9 (human); compound 0.001 µM): -9.7%
inhibition (MAPK9 (human); compound 0.02 µM): -9.3%
inhibition (CAMK1 (human); compound 0.001 µM): -3.4%
inhibition (CAMK1 (human); compound 0.02 µM): -4.5%
inhibition (PLK1 (human); compound 0.001 µM): -5%
inhibition (PLK1 (human); compound 0.02 µM): -2.2%
inhibition (CAMK4 (human); compound 0.001 µM): -4%
inhibition (CAMK4 (human); compound 0.02 µM): -4.7%
inhibition (CSNK1G2 (human); compound 0.001 µM): -2.9%
inhibition (CSNK1G2 (human); compound 0.02 µM): -1.6%
inhibition (EPHA5 (human); compound 0.001 µM): -5.3%
inhibition (EPHA5 (human); compound 0.02 µM): -3.9%
inhibition (SGK1 (human); compound 0.001 µM): 11.3%
inhibition (SGK1 (human); compound 0.02 µM): -1.8%
inhibition (CDK9 (human); compound 0.001 µM): -4.7%
inhibition (CDK9 (human); compound 0.02 µM): -6.4%
inhibition (SRMS (human); compound 0.001 µM): -4.5%
inhibition (SRMS (human); compound 0.02 µM): -4.9%
inhibition (HIPK1 (human); compound 0.001 µM): -4.9%
inhibition (HIPK1 (human); compound 0.02 µM): -0.2%
inhibition (CSNK1D (human); compound 0.001 µM): -5.3% and -6.3%
inhibition (CSNK1D (human); compound 0.02 µM): -5.2% and -5.3%
inhibition (CDK1 (human); compound 0.001 µM): -3.7%
inhibition (CDK1 (human); compound 0.02 µM): -3.5%
inhibition (PRKCE (human); compound 0.001 µM): 4.4%
inhibition (PRKCE (human); compound 0.02 µM): -4.2%
inhibition (BRSK2 (human); compound 0.001 µM): -3.5%
inhibition (BRSK2 (human); compound 0.02 µM): 12.9%
inhibition (PIK3CA PIK3R1 (human); compound 0.001 µM): 40.8%
inhibition (PIK3CA PIK3R1 (human); compound 0.02 µM): 40.7%
inhibition (MARK3 (human); compound 0.001 µM): -1%
inhibition (MAPK7 (human); compound 0.001 µM): -9.5%
inhibition (MAPK7 (human); compound 0.02 µM): -9.5%
inhibition (HCK (human); compound 0.02 µM): -7.8%
inhibition (MAPK11 (human); compound 0.001 µM): -2.8%
inhibition (MAPK11 (human); compound 0.02 µM): -3.8%
inhibition (MYLK2 (human); compound 0.001 µM): -4.8%
inhibition (MYLK2 (human); compound 0.02 µM): -2.6%
inhibition (PRKAA2 (human); compound 0.001 µM): 4.5%
inhibition (PRKAA2 (human); compound 0.02 µM): 8.8%
inhibition (WNK2 (human); compound 0.001 µM): 1.8%
inhibition (WNK2 (human); compound 0.02 µM): -0.3%
inhibition (SGK3 (human); compound 0.001 µM): 13.9%
inhibition (SGK3 (human); compound 0.02 µM): 0.8%
inhibition (CSNK1G1 (human); compound 0.001 µM): -4.5%
inhibition (CSNK1G1 (human); compound 0.02 µM): -3.6%
inhibition (PRKD3 (human); compound 0.001 µM): -4.3%
inhibition (PRKD3 (human); compound 0.02 µM): -1.6%
inhibition (MINK1 (human); compound 0.001 µM): 0.7%
inhibition (MINK1 (human); compound 0.02 µM): 0.1%
inhibition (PRKCD (human); compound 0.001 µM): 15.6%
inhibition (PRKCD (human); compound 0.02 µM): -0.9%
Compound: CNC(=O)c1ccccc1Sc1ccc2c(/C=C/c3ccccn3)n[nH]c2c1

inhibition (PTK2B (human); compound 0.02 µM): -1.9%
inhibition (PTK2B (human); compound 0.2 µM): -5.4%
inhibition (TNIK (human); compound 0.02 µM): -0.5%
inhibition (TNIK (human); compound 0.2 µM): 24.9%
inhibition (CSNK1A1 (human); compound 0.02 µM): -5.9%
inhibition (CSNK1A1 (human); compound 0.2 µM): -7.9%
inhibition (TSSK3 (human); compound 0.02 µM): 0.6%
inhibition (TSSK3 (human); compound 0.2 µM): 12.5%
inhibition (PRKD2 (human); compound 0.02 µM): -0.3%
inhibition (PRKD2 (human); compound 0.2 µM): -1.5%
inhibition (LTK (human); compound 0.02 µM): 4.7%
inhibition (LTK (human); compound 0.2 µM): 5.6%
inhibition (FGFR3 (human); compound 0.02 µM): 72.3%
inhibition (FGFR3 (human); compound 0.2 µM): 96.5%
inhibition (MAPK9 (human); compound 0.02 µM): -9.4%
inhibition (MAPK9 (human); compound 0.2 µM): -7.7%
inhibition (CAMK1 (human); compound 0.02 µM): -3.1%
inhibition (CAMK1 (human); compound 0.2 µM): -3.1%
inhibition (PLK1 (human); compound 0.02 µM): -0.1%
inhibition (PLK1 (human); compound 0.2 µM): -2%
inhibition (CAMK4 (human); compound 0.02 µM): -4%
inhibition (CAMK4 (human); compound 0.2 µM): -0.6%
inhibition (CSNK1G2 (human); compound 0.02 µM): -0.7%
inhibition (CSNK1G2 (human); compound 0.2 µM): -2.1%
inhibition (EPHA5 (human); compound 0.02 µM): -0.9%
inhibition (EPHA5 (human); compound 0.2 µM): 7.6%
inhibition (SGK1 (human); compound 0.02 µM): 5.2%
inhibition (SGK1 (human); compound 0.2 µM): 0.4%
inhibition (CDK9 (human); compound 0.02 µM): -3.2%
inhibition (CDK9 (human); compound 0.2 µM): -3.3%
inhibition (SRMS (human); compound 0.02 µM): -0.7%
inhibition (SRMS (human); compound 0.2 µM): -1.7%
inhibition (HIPK1 (human); compound 0.02 µM): -5.7%
inhibition (HIPK1 (human); compound 0.2 µM): -1%
inhibition (CSNK1D (human); compound 0.02 µM): -3.7% and -4.3%
inhibition (CSNK1D (human); compound 0.2 µM): -3.5% and -3.9%
inhibition (CDK1 (human); compound 0.02 µM): -0.7%
inhibition (CDK1 (human); compound 0.2 µM): -3.2%
inhibition (PRKCE (human); compound 0.02 µM): 7.2%
inhibition (PRKCE (human); compound 0.2 µM): -3%
inhibition (BRSK2 (human); compound 0.02 µM): -2.3%
inhibition (BRSK2 (human); compound 0.2 µM): 2.8%
inhibition (PIK3CA PIK3R1 (human); compound 0.02 µM): 26.6%
inhibition (PIK3CA PIK3R1 (human); compound 0.2 µM): 34.9%
inhibition (MARK3 (human); compound 0.02 µM): -1.8%
inhibition (MARK3 (human); compound 0.2 µM): -3.4%
inhibition (MAPK7 (human); compound 0.02 µM): -8.6%
inhibition (MAPK7 (human); compound 0.2 µM): -6.2%
inhibition (HCK (human); compound 0.02 µM): 0.4%
inhibition (HCK (human); compound 0.2 µM): 21.1%
inhibition (MAPK11 (human); compound 0.02 µM): -2.6%
inhibition (MAPK11 (human); compound 0.2 µM): -3.5%
inhibition (MYLK2 (human); compound 0.02 µM): -2.3%
inhibition (MYLK2 (human); compound 0.2 µM): -2.4%
inhibition (PRKAA2 (human); compound 0.02 µM): 5.1%
inhibition (PRKAA2 (human); compound 0.2 µM): 6%
inhibition (WNK2 (human); compound 0.02 µM): 3.8%
inhibition (WNK2 (human); compound 0.2 µM): 2.8%
inhibition (SGK3 (human); compound 0.02 µM): 8.5%
inhibition (SGK3 (human); compound 0.2 µM): 1.9%
inhibition (CSNK1G1 (human); compound 0.02 µM): -2%
inhibition (CSNK1G1 (human); compound 0.2 µM): -0.6%
inhibition (PRKD3 (human); compound 0.02 µM): -1%
inhibition (PRKD3 (human); compound 0.2 µM): -2.5%
inhibition (MINK1 (human); compound 0.02 µM): 3.5%
inhibition (MINK1 (human); compound 0.2 µM): 2.9%
inhibition (PRKCD (human); compound 0.02 µM): 11.1%
inhibition (PRKCD (human); compound 0.2 µM): -2.2%
Compound: COc1cc2c(Oc3ccc4[nH]c(C)cc4c3F)ncnc2cc1OCCCN1CCCC1
